Data published in patent US20070015823A1, “Ambruticin VS compounds” (priority 2004, published 2007).
In brackets after ≈: the same amount, converted by molar mass. Like-named read-outs stand apart in the source and are kept apart here.

Legend:
C. posadasii = experiment: microbe, parasite or virus in culture; format: cell-based, Coccidioides posadasii
A. flavus ATCC 204304 = experiment: Broth microdilution antifungal susceptibility, NCCLS M38-A; format: cell-based, Aspergillus flavus; conditions: for MIC0 A. flavus ATCC 204304: minimal concentration inhibiting >95% growth, average of at least two assays (except I-l and I-x)
[1] = tested on: Trichophyton mentagrophytes; experiment: Dermatophyte broth microdilution, NCCLS M38-A; format: cell-based
Cryptococcus neoformans = experiment: Broth microdilution antifungal susceptibility, NCCLS M38-A; conditions: for MIC C. neoformans 97-14: strain 97-14; for MIC C. neoformans 97-14 / MIC C. neoformans 11239 / MIC C. neoformans 11240: 50% growth inhibition, range = minimum and maximum of multiple assays; for MIC C. neoformans 11239: strain 11239; for MIC C. neoformans 11240: strain 11240; for MIC: Cryptococcus neoformans
S. apiospermum = experiment: as above; format: cell-based, Scedosporium apiospermum; conditions: for MIC: Scedosporium apiospermum
C. immitis = experiment: microbe, parasite or virus in culture; format: cell-based, Coccidioides immitis
Candida albicans = conditions: for MIC C. albicans 24433: strain 24433; for MIC C. albicans 24433 / MIC C. albicans 90028: 50% growth inhibition, range = minimum and maximum of multiple assays; for MIC C. albicans 90028 / MIC0 C. albicans 90028: strain 90028; for MIC0 C. albicans 90028: 95% growth inhibition
A. fumigatus ATCC 204305 = experiment: Broth microdilution antifungal susceptibility, NCCLS M38-A; format: cell-based, Aspergillus fumigatus; conditions: for MIC0 A. fumigatus ATCC 204305: minimal concentration inhibiting >95% growth, average of at least two assays (except I-l and I-x)
Microsporum gypseum = experiment: Dermatophyte broth microdilution, NCCLS M38-A; format: cell-based
Trichophyton rubrum = experiment: Dermatophyte broth microdilution, NCCLS M38-A; format: cell-based
Histoplasma capsulatum = format: cell-based
Blastomyces dermatitidis = experiment: Broth microdilution antifungal susceptibility, NCCLS M38-A; format: cell-based; conditions: for MIC: Blastomyces dermatitidis
Microsporum canis = experiment: Dermatophyte broth microdilution, NCCLS M38-A; format: cell-based
Fusarium solani = experiment: Broth microdilution antifungal susceptibility, NCCLS M38-A; format: cell-based; conditions: for MIC F. solani 96-1: strain 96-1, 50% growth inhibition, range = minimum and maximum of multiple assays
Candida parapsilosis [2] = experiment: microbe, parasite or virus in culture; conditions: Lodderomyces parapsilosis, read-out: MIC0 C. parapsilosis 92019
Candida krusei = conditions: for MIC0 C. krusei 6258: strain 6258, 95% growth inhibition
Candida parapsilosis [3] = conditions: strain 92019; 95% growth inhibition
Epidermophyton floccosum = experiment: Dermatophyte broth microdilution, NCCLS M38-A; format: cell-based
[4] = tested on: Trichophyton interdigitale; experiment: Dermatophyte broth microdilution, NCCLS M38-A; format: cell-based

## CC[C@H]1O[C@@H](/C(C)=C/[C@H](C)/C=C/[C@H]2[C@@H](C)[C@@H]2/C=C/[C@@H]2O[C@H](CC(=O)O)C[C@H](N(C)C(C)C)[C@H]2O)CC=C1C [I-v, (5S,6R)-5-(N-isoproyl-methylamino)-6-hydroxypolyangioic acid]
C. posadasii
  MIC C. posadasii C735: 0.25 µg/mL (≈ 0.472 µM)
  MIC C. posadasii RMSCC 2127: 0.125 µg/mL (≈ 0.236 µM)
  MIC C. posadasii Silveria: 0.25 µg/mL (≈ 0.472 µM)
A. flavus ATCC 204304
  MIC0 A. flavus ATCC 204304: 1.1 µg/mL
[1]
  MIC0 Tm: 4 µg/mL
Cryptococcus neoformans
  MIC C. neoformans 97-14: 0.5 µg/mL (≈ 0.944 µM)
  MIC C. neoformans 11239: 0.25 µg/mL (≈ 0.472 µM)
  MIC C. neoformans 11240: 0.25 to 0.5 µg/mL
S. apiospermum
  MIC S. apiospermum 94-54: >16 µg/mL
  MIC S. apiospermum 98-38: >16 µg/mL
  MIC S. apiospermum 98-89: 0.25 µg/mL (≈ 0.472 µM)
C. immitis
  MIC C. immitis RMS 2281: 0.125 µg/mL (≈ 0.236 µM)
  MIC C. immitis RS: 0.25 µg/mL (≈ 0.472 µM)
  MIC C. immitis S46: 0.125 µg/mL (≈ 0.236 µM)
Candida albicans
  MIC C. albicans 24433: >32 µg/mL
  MIC C. albicans 90028: >32 µg/mL
A. fumigatus ATCC 204305
  MIC0 A. fumigatus ATCC 204305: 1.32 µg/mL
Microsporum gypseum
  MIC0 Mg: 2 µg/mL
Trichophyton rubrum
  MIC0 Tr: 5.03 µg/mL
Histoplasma capsulatum
  MIC H. capsulatum G217B: <0.19 µg/mL
  MIC H. capsulatum GS20: <0.19 µg/mL
Blastomyces dermatitidis
  MIC0 Blastomyces dermatitidis 04-2167: 0.06 µg/mL
  MIC0 Blastomyces dermatitidis 04-2508: 0.06 µg/mL
  MIC0 Blastomyces dermatitidis 04-2915: 0.125 µg/mL
  MIC0 Blastomyces dermatitidis 05-106: 0.03 µg/mL
  MIC0 Blastomyces dermatitidis 05-186: 0.06 µg/mL
  MIC0 Blastomyces dermatitidis 05-1391: 0.03 µg/mL
  MIC0 Blastomyces dermatitidis 05-1707: ≦0.015 μg/mL
  MIC0 Blastomyces dermatitidis 05-1820: 0.06 µg/mL
  MIC0 Blastomyces dermatitidis 05-1829: 0.06 µg/mL
  MIC0 Blastomyces dermatitidis 05-2020: 0.06 µg/mL
  MIC0 Blastomyces dermatitidis R-3529: 0.063 µg/mL
  MIC0 Blastomyces dermatitidis R-35629: 0.03 µg/mL
  MIC B. dermatitidis Gu: 12.5 µg/mL (≈ 23.6 µM)
  MIC B. dermatitidis Kr: >12.5 µg/mL
  MIC B. dermatitidis V: 12.5 µg/mL (≈ 23.6 µM)
Microsporum canis
  MIC0 Mc: 2 µg/mL
Fusarium solani
  MIC F. solani 96-1: >16 µg/mL

## CCC(C)n1ncn(-c2ccc(N3CCN(c4ccc(OCC5COC(Cn6cncn6)(c6ccc(Cl)cc6Cl)O5)cc4)CC3)cc2)c1=O (centres unmarked) [Itraconazole, reference compound]
A. flavus ATCC 204304; Aspergillus flavus, ATCC204304, read-out: MIC0 A. flavus ATCC 204304
  MIC: 0.47 µg/mL (≈ 0.666 µM)
Cryptococcus neoformans; read-out: MIC C. neoformans 97-14
  MIC: 0.125 µg/mL (≈ 0.177 µM)
Cryptococcus neoformans; read-out: MIC C. neoformans 11239
  MIC: 0.031 µg/mL (≈ 0.0439 µM)
Cryptococcus neoformans; read-out: MIC C. neoformans 11240
  MIC: 0.313 µg/mL (≈ 0.444 µM)
S. apiospermum; read-out: MIC S. apiospermum 98-38
  MIC: 1 to 4 µg/mL (≈ 1.42 to 5.67 µM)
S. apiospermum; read-out: MIC S. apiospermum 98-89
  MIC: 1 to 2 µg/mL (≈ 1.42 to 2.83 µM)
Candida albicans; Candida albicans, read-out: MIC0 C. albicans 90028
  MIC: 0.25 µg/mL (≈ 0.354 µM)
A. fumigatus ATCC 204305; Aspergillus fumigatus, ATCC204305, read-out: MIC0 A. fumigatus ATCC 204305
  MIC: 0.58 µg/mL (≈ 0.822 µM)
Candida parapsilosis [2]
  MIC: 0.25 µg/mL (≈ 0.354 µM)
Candida krusei; Pichia kudriavzevii, read-out: MIC0 C. krusei 6258
  MIC: 0.25 µg/mL (≈ 0.354 µM)
Blastomyces dermatitidis; read-out: MIC0 Blastomyces dermatitidis 04-2167
  MIC: 0.03 µg/mL (≈ 0.0425 µM)
Blastomyces dermatitidis; read-out: MIC0 Blastomyces dermatitidis 04-2508
  MIC: 0.03 µg/mL (≈ 0.0425 µM)
Blastomyces dermatitidis; read-out: MIC0 Blastomyces dermatitidis 04-2915
  MIC: 0.06 µg/mL (≈ 0.085 µM)
Blastomyces dermatitidis; read-out: MIC0 Blastomyces dermatitidis 05-106
  MIC: 0.06 µg/mL (≈ 0.085 µM)
Blastomyces dermatitidis; read-out: MIC0 Blastomyces dermatitidis 05-186
  MIC: 0.06 µg/mL (≈ 0.085 µM)
Blastomyces dermatitidis; read-out: MIC0 Blastomyces dermatitidis 05-1391
  MIC: 0.03 µg/mL (≈ 0.0425 µM)
Blastomyces dermatitidis; read-out: MIC0 Blastomyces dermatitidis 05-1707
  MIC: ≤ 0.015 µg/mL
Blastomyces dermatitidis; read-out: MIC0 Blastomyces dermatitidis 05-1820
  MIC: ≤ 0.015 µg/mL
Blastomyces dermatitidis; read-out: MIC0 Blastomyces dermatitidis 05-1829
  MIC: 0.06 µg/mL (≈ 0.085 µM)
Blastomyces dermatitidis; read-out: MIC0 Blastomyces dermatitidis 05-2020
  MIC: ≤ 0.015 µg/mL
Blastomyces dermatitidis; read-out: MIC0 Blastomyces dermatitidis R-3529
  MIC: ≤ 0.015 µg/mL
Blastomyces dermatitidis; read-out: MIC0 Blastomyces dermatitidis R-35629
  MIC: ≤ 0.015 µg/mL
Fusarium solani; Fusarium solani, read-out: MIC F. solani 96-1
  MIC: > 4 µg/mL

## CC[C@H]1O[C@@H](/C(C)=C/[C@H](C)/C=C/[C@H]2[C@@H](C)[C@@H]2/C=C/[C@@H]2O[C@H](CC(=O)O)C[C@H](N)[C@H]2O)CCC1C (some centres unmarked) [IV-a, 20,21-dihydro ambruticin VS-5]
A. flavus ATCC 204304
  MIC0 A. flavus ATCC 204304: 0.18 µg/mL
[1]
  MIC0 Tm: 1 µg/mL
C. immitis
  MIC2 C. immitis 05-469: ≦0.15 μg/mL
  MIC2 C. immitis 05-955: ≦0.15 μg/mL
  MIC2 C. immitis 05-1387: ≦0.15 μg/mL
Candida parapsilosis [3]
  MIC0 C. parapsilosis 92019: <0.0625 µg/mL
Candida albicans; strain 05-1422
  MIC2 C. albicans 05-1422: ≦0.15 μg/mL
Candida albicans; strain 05-1422, statement in words
  growth of Candida albicans strain 05-1422: inhibits growth
Candida albicans; strain 05-1424
  MIC2 C. albicans 05-1424: >10 µg/mL
Candida albicans; strain 05-1426
  MIC2 C. albicans 05-1426: >10 µg/mL
Candida albicans
  MIC0 C. albicans 90028: >32 µg/mL
A. fumigatus ATCC 204305
  MIC0 A. fumigatus ATCC 204305: 0.85 µg/mL
Candida krusei
  MIC0 C. krusei 6258: >32 µg/mL
Microsporum gypseum
  MIC0 Mg: 0.5 µg/mL
Epidermophyton floccosum
  MIC0 Ef: 4 µg/mL
Trichophyton rubrum
  MIC0 Tr: 0.5 µg/mL
Histoplasma capsulatum
  MIC2 H. capsulatum 05-959: ≦0.15 μg/mL
  MIC2 H. capsulatum 05-1097: ≦0.15 μg/mL
  MIC2 H. capsulatum 05-1159: ≦0.15 μg/mL
Blastomyces dermatitidis
  MIC2 B. dermatitidis 05-106: ≦0.15 μg/mL
  MIC2 B. dermatitidis 05-186: ≦0.15 μg/mL
  MIC2 B. dermatitidis 05-1291: ≦0.15 μg/mL
[4]
  MIC0 Ti: 0.39 µg/mL
Microsporum canis
  MIC0 Mc: 0.5 µg/mL

## C[C@@H]1[C@H](O)[C@@H](C)/C=C/C=C/C=C/C=C/C=C/C=C/C=C/[C@H](O[C@@H]2O[C@H](C)[C@@H](O)[C@H](N)[C@@H]2O)C[C@@H]2O[C@](O)(C[C@@H](O)C[C@@H](O)[C@H](O)CC[C@@H](O)C[C@@H](O)CC(=O)O[C@H]1C)C[C@H](O)[C@H]2C(=O)O [Amphotericin B, reference compound]
C. posadasii; strain C735, 80% growth inhibition
  MIC C. posadasii C735: 1 µg/mL (≈ 1.08 µM)
C. posadasii; strain RMSCC 2127, 80% growth inhibition
  MIC C. posadasii RMSCC 2127: 1 µg/mL (≈ 1.08 µM)
C. posadasii; strain Silveria, 80% growth inhibition
  MIC C. posadasii Silveria: 1 µg/mL (≈ 1.08 µM)
A. flavus ATCC 204304
  MIC0 A. flavus ATCC 204304: 1.67 µg/mL
Cryptococcus neoformans
  MIC C. neoformans 97-14: 0.5 to 2 µg/mL
  MIC C. neoformans 11239: 0.5 to 1 µg/mL
  MIC C. neoformans 11240: 0.5 to 1 µg/mL
S. apiospermum; strain 94-54, 50% growth inhibition, range = minimum and maximum of multiple assays
  MIC S. apiospermum 94-54: >32 µg/mL
S. apiospermum; strain 98-38, 50% growth inhibition, range = minimum and maximum of multiple assays
  MIC S. apiospermum 98-38: 4 µg/mL (≈ 4.33 µM)
S. apiospermum; strain 98-89, 50% growth inhibition, range = minimum and maximum of multiple assays
  MIC S. apiospermum 98-89: 8 µg/mL (≈ 8.66 µM)
C. immitis; strain RMS 2281, 80% growth inhibition
  MIC C. immitis RMS 2281: 1 µg/mL (≈ 1.08 µM)
C. immitis; strain RS, 80% growth inhibition
  MIC C. immitis RS: 1 µg/mL (≈ 1.08 µM)
C. immitis; strain S46, 80% growth inhibition
  MIC C. immitis S46: 1 µg/mL (≈ 1.08 µM)
Candida parapsilosis [3]
  MIC0 C. parapsilosis 92019: 1 µg/mL
Candida albicans
  MIC C. albicans 24433: 2 to 4 µg/mL
  MIC C. albicans 90028: 2 to 4 µg/mL
  MIC0 C. albicans 90028: 1 µg/mL
A. fumigatus ATCC 204305
  MIC0 A. fumigatus ATCC 204305: 1.53 µg/mL
Candida krusei
  MIC0 C. krusei 6258: 1 µg/mL
Histoplasma capsulatum; strain G217B, 50% growth inhibition
  MIC H. capsulatum G217B: 0.19 µg/mL (≈ 0.206 µM)
Histoplasma capsulatum; strain GS20, 50% growth inhibition
  MIC H. capsulatum GS20: 0.19 µg/mL (≈ 0.206 µM)
Blastomyces dermatitidis; strain Gu, 50% growth inhibition
  MIC B. dermatitidis Gu: 2 µg/mL (≈ 2.16 µM)
Blastomyces dermatitidis; strain Kr, 50% growth inhibition
  MIC B. dermatitidis Kr: 1 µg/mL (≈ 1.08 µM)
Blastomyces dermatitidis; strain V, 50% growth inhibition
  MIC B. dermatitidis V: 1 µg/mL (≈ 1.08 µM)
Fusarium solani
  MIC F. solani 96-1: 1 to 2 µg/mL
